Laboratory results taken from US10967078B2, “Radiolabelled mGluR2 PET ligands” (Janssen Pharmaceutica NV, priority 2014, dated 2021).

Assays:
mGlu3 = mGlu3 (Homo sapiens, UniProt Q14832); experiment: Selectivity for mGluR2 versus mGluR3; format: biochemical
mGlu4 = mGlu4 (Homo sapiens, UniProt Q14833); experiment: Selectivity for mGluR2 versus mGluR4; format: biochemical
mGlu8 = mGlu8 (Homo sapiens, UniProt O00222); experiment: Selectivity for mGluR2 versus mGluR8; format: biochemical
[1] = Biodistribution studies in normal female Wistar rats; format: in vivo, rat; details: for % ID blood / SUV blood / % ID bone / SUV bone / % ID carcass / % ID cerebellum / SUV cerebellum / SUV cerebrum + cerebellum / % ID cerebrum total / % ID cortex / SUV cortex / % ID heart / % ID hippocampus / SUV hippocampus / % ID intestines / % ID kidneys / % ID liver / % ID lungs / % ID muscle / SUV muscle / % ID rest of cerebrum / SUV rest of cerebrum / % ID spleen + pancreas / % ID stomach / % ID striatum / SUV striatum / % ID urine / SUV whole cerebrum: mean n=3; for SUV cerebrum + cerebellum / Total brain uptake: cerebrum + cerebellum; for Total brain uptake: n=3
Protocol: High-performance liquid chromatography (HPLC) analysis was performed on a LaChrom Elite® HPLC system (Hitachi, Armstadt, Germany) connected to a UV spectrometer. For the analysis of radiolabeled compounds, the HPLC eluate, after passage through the UV detector, was led over a shielded 3-inch NaI(Tl) scintillation detector connected to a single channel analyser (Gabi box, Raytest, Straubenhardt, Germany). The output signal was recorded and analysed using a GINA Star data acquisition system (Raytest, Straubenhardt, Germany). Radioactivity in samples of biodistribution studies was quantified using an automated gamma counter equipped with a 3-inch NaI(Tl) well crystal coupled to a multichannel analyser (Wallac 2480 Wizard, Wallac, Turku, Finland). Results were corrected for background radiation, physical decay and counter dead time. Animals were housed in individually ventilated cages in a thermoregulated (˜22° C.), humidity-controlled facility under a 12 h/12 h light/dark cycle with access to food and water ad libitum. All animal experiments were conducted according to the Belgian code of practice for the care and use of animals, after approval from the local University Ethics Committee for Animals.
Biodistribution studies of [^11C]-2 and [^11C]-1 were carried out in healthy female Wister rats (body weight 185-220 g) at 2 min, 30 min and 60 min post injection (p.i.) (n=3/time point). Rats were injected with about 18 MBq of the tracer via a tail vein under anesthesia (2.5% isoflurane in O2 at 1 L/min flow rate) and sacrificed by decapitation at the above specified time points. Blood and major organs were collected in tared tubes and weighed. The radioactivity in blood, organs and other body parts was measured using an automated gamma counter. For calculation of total blood radioactivity, blood mass was assumed to be 7% of the body mass. For calculation of total muscle and total bone radioactivity, muscle and bone mass were assumed to be 40% and 12% of the body mass, respectively.

mGluR2 [2] = target: T1, mGluR2 (Mus musculus, UniProt Q14BI2); experiment: In vitro autoradiography binding on mGluR2 KO and WT mouse brain sections; details: for Cortex WT (TB)/cortex WT (block Co. No. 1) / spec binding, cortex WT: WT mouse cortex; for Cortex WT (TB)/cortex WT (block Co. No. 1) / spec binding, cortex WT / Striatum WT (TB)/striatum WT (block Co. No. 1) / spec binding, striatum WT: block with 10 μM Co. No. 1; for Striatum WT (TB)/striatum WT (block Co. No. 1) / spec binding, striatum WT: WT mouse striatum; for difference in tracer binding to WT and mGluR2 KO mouse brain sections: in words; for Cortex WT (TB)/Cortex KO (TB) / Striatum WT (TB)/Striatum KO (TB): total binding ratio, WT versus mGluR2 KO mouse brain sections
T1 construct: horizontal sections of mGluR2 KO and WT mouse brain and of normal female Wistar rat brain; from tissue; host or cells: mouse brain sections (WT and mGluR2 KO), 20 µm
Protocol: (§1) In vitro autoradiography studies were performed on horizontal sections of mGluR2 KO and WT mouse brain and of normal female Wistar rat brain (20 μm). The sections were preincubated in 50 mM Tris-HCl (MgCl2 2 mM, CaCl2 2 mM; pH 7.0) for 10 min (two times) at room temperature and dried. Next, the brain sections were incubated with tracer [^11C]-2, [^11C]-5, [^11C]-4, [^11C]-1 or [^18F]-3 diluted in the same Tris-HCl buffer as used for the preincubation additionally containing 0.1% BSA or with this tracer solution in the presence of 10 μM Co. No. 2 or Co. No. 1. The mouse brain sections were incubated with 17 kBq of carbon-11 labeled tracer and 1.7 kBq of fluorine-18 labeled tracer. For the rat brain sections this was 44 kBq of carbon-11 labeled tracer and 0.44 kBq of fluorine-18 labeled tracer. After 30 min of incubation, the brain sections were washed three times for 5 min in ice-cold Tris-HCl 50 mM ((MgCl2 2 mM, CaCl2 2 mM; pH 7.0+0.1% BSA buffer). After a quick dip in purified ice-cold water, the slides were dried. Autoradiograms were obtained by exposing the slides overnight to a high-performance phosphor storage screen (super-resolution screen; Perkin Elmer, Waltham, USA). The screens were read using a Cyclone Plus system (Perkin Elmer) and analysed using Optiquant software (Perkin Elmer). The radioactivity concentration in the autoradiograms was expressed in digital light units (DLU)/mm^2.
(§2) To obtain additional information on the specificity of the tracer binding to mGluR2, in vitro autoradiography binding studies were performed on mGluR2 KO and WT mouse brain sections and on normal rat brain sections in presence or absence of a high concentration of mGluR2 NAM compounds (Co. No. 1 or Co. No. 2).

mGluR2 [3] = target: T2, mGluR2 (Rattus norvegicus, UniProt P31421); experiment: In vitro autoradiography binding on normal female Wistar rat brain sections; details: in words
T2 construct: horizontal sections of mGluR2 KO and WT mouse brain and of normal female Wistar rat brain; from tissue; host or cells: normal female Wistar rat brain sections, 20 µm
Protocol: as §1, §2

T1 sequence (Q14BI2 19-872): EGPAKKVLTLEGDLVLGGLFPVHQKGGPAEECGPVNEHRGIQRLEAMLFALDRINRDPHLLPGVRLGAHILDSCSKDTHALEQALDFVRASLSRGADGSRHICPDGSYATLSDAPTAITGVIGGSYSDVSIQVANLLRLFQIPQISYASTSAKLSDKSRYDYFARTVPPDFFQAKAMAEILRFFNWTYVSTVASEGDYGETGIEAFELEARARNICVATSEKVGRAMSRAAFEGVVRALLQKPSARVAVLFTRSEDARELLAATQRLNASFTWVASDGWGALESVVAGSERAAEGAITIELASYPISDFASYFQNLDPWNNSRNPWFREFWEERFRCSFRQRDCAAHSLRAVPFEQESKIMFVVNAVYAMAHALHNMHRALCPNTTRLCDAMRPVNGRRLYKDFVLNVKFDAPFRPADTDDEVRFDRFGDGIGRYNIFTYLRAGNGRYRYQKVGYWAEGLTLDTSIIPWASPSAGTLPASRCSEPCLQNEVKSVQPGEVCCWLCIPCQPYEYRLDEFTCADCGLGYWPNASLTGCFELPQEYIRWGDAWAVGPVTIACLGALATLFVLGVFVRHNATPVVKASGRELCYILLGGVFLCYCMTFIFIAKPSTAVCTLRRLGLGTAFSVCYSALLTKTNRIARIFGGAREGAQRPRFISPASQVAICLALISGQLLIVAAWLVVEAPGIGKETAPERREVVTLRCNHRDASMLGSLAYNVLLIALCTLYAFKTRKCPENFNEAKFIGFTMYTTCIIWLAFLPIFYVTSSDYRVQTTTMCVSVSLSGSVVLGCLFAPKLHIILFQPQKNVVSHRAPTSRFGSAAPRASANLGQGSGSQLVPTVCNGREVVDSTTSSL
Sequence of mGlu3 (Q14832 23-879): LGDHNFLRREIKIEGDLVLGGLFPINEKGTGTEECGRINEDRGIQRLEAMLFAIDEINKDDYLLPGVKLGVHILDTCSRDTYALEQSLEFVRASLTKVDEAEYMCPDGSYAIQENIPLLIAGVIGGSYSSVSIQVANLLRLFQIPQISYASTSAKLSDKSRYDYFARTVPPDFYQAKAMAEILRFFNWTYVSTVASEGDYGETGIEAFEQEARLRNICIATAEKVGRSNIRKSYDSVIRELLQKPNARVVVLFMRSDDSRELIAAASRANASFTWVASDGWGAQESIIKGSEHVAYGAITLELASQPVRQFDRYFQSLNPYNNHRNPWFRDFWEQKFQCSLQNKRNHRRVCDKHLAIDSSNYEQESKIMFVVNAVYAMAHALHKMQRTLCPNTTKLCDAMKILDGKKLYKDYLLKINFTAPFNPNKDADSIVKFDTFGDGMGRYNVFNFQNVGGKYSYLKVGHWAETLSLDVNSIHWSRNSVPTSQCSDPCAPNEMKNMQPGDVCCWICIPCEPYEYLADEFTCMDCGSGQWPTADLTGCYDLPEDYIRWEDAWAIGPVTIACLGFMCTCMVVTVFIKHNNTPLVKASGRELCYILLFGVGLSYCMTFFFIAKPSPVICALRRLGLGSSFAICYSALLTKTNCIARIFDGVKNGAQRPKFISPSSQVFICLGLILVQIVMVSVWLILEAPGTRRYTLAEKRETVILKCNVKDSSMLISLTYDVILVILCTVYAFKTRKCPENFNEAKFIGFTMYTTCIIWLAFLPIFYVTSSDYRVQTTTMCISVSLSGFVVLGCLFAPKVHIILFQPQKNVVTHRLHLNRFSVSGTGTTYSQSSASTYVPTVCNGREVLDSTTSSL
Sequence of mGlu8 (O00222 34-908): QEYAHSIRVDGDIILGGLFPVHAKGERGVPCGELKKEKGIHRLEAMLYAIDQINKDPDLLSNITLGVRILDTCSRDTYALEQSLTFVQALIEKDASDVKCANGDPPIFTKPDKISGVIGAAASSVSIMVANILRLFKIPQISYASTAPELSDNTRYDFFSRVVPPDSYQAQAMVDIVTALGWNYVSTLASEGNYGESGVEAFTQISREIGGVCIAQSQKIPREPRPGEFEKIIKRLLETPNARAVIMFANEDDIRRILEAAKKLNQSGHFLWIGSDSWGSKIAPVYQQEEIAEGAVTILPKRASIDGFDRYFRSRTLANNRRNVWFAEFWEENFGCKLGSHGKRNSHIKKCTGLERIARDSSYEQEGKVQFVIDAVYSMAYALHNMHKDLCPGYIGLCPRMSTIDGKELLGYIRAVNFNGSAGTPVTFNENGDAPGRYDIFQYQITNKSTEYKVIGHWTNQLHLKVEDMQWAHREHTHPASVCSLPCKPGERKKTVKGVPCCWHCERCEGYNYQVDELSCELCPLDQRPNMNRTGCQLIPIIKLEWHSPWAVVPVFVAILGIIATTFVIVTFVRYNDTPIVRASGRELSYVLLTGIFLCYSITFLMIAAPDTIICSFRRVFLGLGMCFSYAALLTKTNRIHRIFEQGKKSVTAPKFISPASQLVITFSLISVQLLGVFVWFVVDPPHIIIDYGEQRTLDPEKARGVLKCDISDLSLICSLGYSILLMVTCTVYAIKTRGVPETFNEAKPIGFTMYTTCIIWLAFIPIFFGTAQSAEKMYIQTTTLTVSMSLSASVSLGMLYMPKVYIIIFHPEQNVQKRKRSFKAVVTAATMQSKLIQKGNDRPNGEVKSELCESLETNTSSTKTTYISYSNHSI
Sequence of mGlu4 (Q14833 33-912): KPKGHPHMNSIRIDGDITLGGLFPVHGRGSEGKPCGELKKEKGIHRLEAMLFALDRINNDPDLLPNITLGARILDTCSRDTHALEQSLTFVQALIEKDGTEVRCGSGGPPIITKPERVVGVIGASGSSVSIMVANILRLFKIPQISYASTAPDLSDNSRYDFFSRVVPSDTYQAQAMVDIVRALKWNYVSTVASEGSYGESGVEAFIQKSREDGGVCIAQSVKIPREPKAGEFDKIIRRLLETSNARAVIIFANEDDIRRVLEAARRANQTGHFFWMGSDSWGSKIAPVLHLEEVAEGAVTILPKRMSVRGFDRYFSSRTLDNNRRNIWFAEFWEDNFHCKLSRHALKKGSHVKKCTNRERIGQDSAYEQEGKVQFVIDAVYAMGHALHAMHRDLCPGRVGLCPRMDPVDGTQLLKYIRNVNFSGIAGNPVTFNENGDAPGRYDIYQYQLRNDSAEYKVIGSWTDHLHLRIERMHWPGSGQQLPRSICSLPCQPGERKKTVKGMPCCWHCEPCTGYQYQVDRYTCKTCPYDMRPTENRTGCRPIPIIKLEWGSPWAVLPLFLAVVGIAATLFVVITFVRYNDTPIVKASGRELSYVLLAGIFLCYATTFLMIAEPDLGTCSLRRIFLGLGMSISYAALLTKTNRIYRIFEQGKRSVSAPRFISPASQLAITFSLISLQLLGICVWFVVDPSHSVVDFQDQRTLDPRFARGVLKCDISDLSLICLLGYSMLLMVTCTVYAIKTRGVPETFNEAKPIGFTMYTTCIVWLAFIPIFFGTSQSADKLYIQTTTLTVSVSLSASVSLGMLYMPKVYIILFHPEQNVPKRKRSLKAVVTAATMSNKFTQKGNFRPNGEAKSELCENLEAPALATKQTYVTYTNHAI
T2 sequence (P31421 19-872): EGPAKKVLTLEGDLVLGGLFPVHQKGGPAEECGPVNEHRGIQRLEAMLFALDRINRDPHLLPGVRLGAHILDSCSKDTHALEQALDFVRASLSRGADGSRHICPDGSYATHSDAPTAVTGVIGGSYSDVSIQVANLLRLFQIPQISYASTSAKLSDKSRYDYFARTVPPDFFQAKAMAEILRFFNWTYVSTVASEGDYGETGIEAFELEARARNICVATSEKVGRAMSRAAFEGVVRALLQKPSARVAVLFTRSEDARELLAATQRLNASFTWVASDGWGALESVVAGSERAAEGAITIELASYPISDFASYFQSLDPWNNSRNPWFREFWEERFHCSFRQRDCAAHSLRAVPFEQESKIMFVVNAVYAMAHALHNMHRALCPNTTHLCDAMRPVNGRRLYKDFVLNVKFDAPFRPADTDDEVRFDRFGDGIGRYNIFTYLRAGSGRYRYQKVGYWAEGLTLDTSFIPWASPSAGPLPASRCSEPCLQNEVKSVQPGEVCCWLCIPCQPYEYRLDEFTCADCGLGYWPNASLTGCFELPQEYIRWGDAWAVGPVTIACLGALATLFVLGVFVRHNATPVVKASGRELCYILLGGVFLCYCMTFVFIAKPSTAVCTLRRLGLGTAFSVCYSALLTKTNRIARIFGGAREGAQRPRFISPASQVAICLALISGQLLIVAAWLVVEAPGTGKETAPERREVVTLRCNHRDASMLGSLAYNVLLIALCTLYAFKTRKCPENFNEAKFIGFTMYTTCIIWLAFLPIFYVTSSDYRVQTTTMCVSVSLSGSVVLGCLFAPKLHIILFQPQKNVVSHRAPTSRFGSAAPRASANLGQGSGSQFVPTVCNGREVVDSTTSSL

CNc1cc(-c2cnn3c2C(=O)N(c2ccc(C(F)(F)F)cc2)C[C@@H]3C)ccn1 [Co. No. 2, (7S)-7-Methyl-3-[2-(methylamino)-4-pyridyl]-5-[4-(trifluoromethyl)phenyl]-6,7-dihydropyrazolo[1,5-a]pyrazin-4-one]
Selectivity over mGlu3 (mGlu3): 44.7 | Selectivity over mGlu4 (mGlu4): 8709.6 | Selectivity over mGlu8 (mGlu8): 1737.8

CNc1cc(-c2cnn3c2C(=O)N(c2ccc(C(F)(F)F)c(OC)n2)C[C@@H]3C)ccn1 [Co. No. 5, (7S)-5-[6-Methoxy-5-(trifluoromethyl)-2-pyridyl]-7-methyl-3-[2-(methylamino)-4-pyridyl]-6,7-dihydropyrazolo[1,5-a]pyrazin-4-one]
Selectivity over mGlu3 (mGlu3): 234.4 | melting point: 125.82 °C

C[C@H]1CN(c2ccc(C(F)(F)F)cc2)C(=O)c2c(-c3ccnc([11CH3])c3)cnn21 [[^11C]-1]
2 min - to- 30 min wash-out ratio ([1]; blood): 1.86 | % ID blood ([1]; blood, 2 min p.i.): 6.3 % ID | SUV blood ([1]; blood, 2 min p.i.): 0.90 SUV | % ID blood ([1]; blood, 30 min p.i.): 3.4 % ID | SUV blood ([1]; blood, 30 min p.i.): 0.49 SUV | 2 min - to- 30 min wash-out ratio ([1]; bone): 2.11 | % ID bone ([1]; bone, 2 min p.i.): 5.7 % ID | SUV bone ([1]; bone, 2 min p.i.): 0.48 SUV | % ID bone ([1]; bone, 30 min p.i.): 2.7 % ID | SUV bone ([1]; bone, 30 min p.i.): 0.23 SUV | % ID carcass ([1]; 2 min p.i.): 43.4 % ID | % ID carcass ([1]; 30 min p.i.): 61.5 % ID | 2 min - to- 30 min wash-out ratio ([1]; cerebellum): 2.90 | % ID cerebellum ([1]; cerebellum, 2 min p.i.): 0.340 % ID | SUV cerebellum ([1]; cerebellum, 2 min p.i.): 2.60 SUV | % ID cerebellum ([1]; cerebellum, 30 min p.i.): 0.120 % ID | SUV cerebellum ([1]; cerebellum, 30 min p.i.): 0.90 SUV | SUV cerebrum + cerebellum ([1]; 2 min p.i.): 2.82 SUV | Total brain uptake ([1]; 2 min p.i.): 2.0 % ID | Total brain uptake ([1]; 2 min p.i., listed as [^11C-1]): 2.01 ± 0.24 % ID | SUV cerebrum + cerebellum ([1]; 30 min p.i.): 0.95 SUV | Total brain uptake ([1]; 30 min p.i.): 0.69 ± 0.05 % ID | % ID cerebrum total ([1]; 2 min p.i.): 1.643 % ID | % ID cerebrum total ([1]; 30 min p.i.): 0.567 % ID | 2 min - to- 30 min wash-out ratio ([1]; cortex): 3.22 | % ID cortex ([1]; cortex, 2 min p.i.): 0.131 % ID | SUV cortex ([1]; cortex, 2 min p.i.): 3.51 SUV | % ID cortex ([1]; cortex, 30 min p.i.): 0.039 % ID | SUV cortex ([1]; cortex, 30 min p.i.): 1.09 SUV | % ID heart ([1]; 2 min p.i.): 0.6 % ID | % ID heart ([1]; 30 min p.i.): 0.5 % ID | 2 min - to- 30 min wash-out ratio ([1]; hippocampus): 2.76 | % ID hippocampus ([1]; hippocampus, 2 min p.i.): 0.083 % ID | SUV hippocampus ([1]; hippocampus, 2 min p.i.): 2.41 SUV | % ID hippocampus ([1]; hippocampus, 30 min p.i.): 0.031 % ID | SUV hippocampus ([1]; hippocampus, 30 min p.i.): 0.87 SUV | % ID intestines ([1]; 2 min p.i.): 10.1 % ID | % ID intestines ([1]; 30 min p.i.): 11.1 % ID | % ID kidneys ([1]; 2 min p.i.): 2.9 % ID | % ID kidneys ([1]; 30 min p.i.): 1.6 % ID | % ID liver ([1]; 2 min p.i.): 31.2 % ID | % ID liver ([1]; 30 min p.i.): 14.2 % ID | % ID lungs ([1]; 2 min p.i.): 2.1 % ID | % ID lungs ([1]; 30 min p.i.): 0.9 % ID | 2 min - to- 30 min wash-out ratio ([1]; muscle): 0.61 | % ID muscle ([1]; muscle, 2 min p.i.): 15.1 % ID | SUV muscle ([1]; muscle, 2 min p.i.): 0.38 SUV | % ID muscle ([1]; muscle, 30 min p.i.): 24.9 % ID | SUV muscle ([1]; muscle, 30 min p.i.): 0.62 SUV | 2 min - to- 30 min wash-out ratio ([1]; rest of cerebrum): 3.00 | % ID rest of cerebrum ([1]; rest of cerebrum, 2 min p.i.): 1.286 % ID | SUV rest of cerebrum ([1]; rest of cerebrum, 2 min p.i.): 2.83 SUV | % ID rest of cerebrum ([1]; rest of cerebrum, 30 min p.i.): 0.445 % ID | SUV rest of cerebrum ([1]; rest of cerebrum, 30 min p.i.): 0.94 SUV | % ID spleen + pancreas ([1]; 2 min p.i.): 1.9 % ID | % ID spleen + pancreas ([1]; 30 min p.i.): 1.2 % ID | % ID stomach ([1]; 2 min p.i.): 2.8 % ID | % ID stomach ([1]; 30 min p.i.): 6.4 % ID | 2 min - to- 30 min wash-out ratio ([1]; striatum): 2.68 | % ID striatum ([1]; striatum, 2 min p.i.): 0.143 % ID | SUV striatum ([1]; striatum, 2 min p.i.): 2.58 SUV | % ID striatum ([1]; striatum, 30 min p.i.): 0.052 % ID | SUV striatum ([1]; striatum, 30 min p.i.): 0.97 SUV | % ID urine ([1]; 2 min p.i.): 0.1 % ID | % ID urine ([1]; 30 min p.i.): 0.1 % ID | 2 min - to- 30 min wash-out ratio ([1]; whole cerebrum): 2.98 | SUV whole cerebrum ([1]; whole cerebrum, 2 min p.i.): 2.83 SUV | SUV whole cerebrum ([1]; whole cerebrum, 30 min p.i.): 0.95 SUV | Cortex WT (TB)/cortex WT (block Co. No. 1) (mGluR2 [2]): ~21.5 | spec binding, cortex WT (mGluR2 [2]): (~95% spec | Striatum WT (TB)/striatum WT (block Co. No. 1) (mGluR2 [2]): ~11.8 | spec binding, striatum WT (mGluR2 [2]): (~92% specific | difference in tracer binding to WT and mGluR2 KO mouse brain sections (mGluR2 [2]): significant difference | Cortex WT (TB)/Cortex KO (TB) (mGluR2 [2]): ~7.1 | Striatum WT (TB)/Striatum KO (TB) (mGluR2 [2]): ~3.8 | total binding to normal rat brain sections (mGluR2 [3]): less pronounced

C[C@H]1CN(c2ccc(S(F)(F)(F)(F)F)cc2)C(=O)c2c(-c3ccnc(N[11CH3])c3)cnn21 [[^11C]-4]
Cortex WT (TB)/cortex WT (block Co. No. 1) (mGluR2 [2]): ~3.8 | spec binding, cortex WT (mGluR2 [2]): (~74% spec | Striatum WT (TB)/striatum WT (block Co. No. 1) (mGluR2 [2]): ~2.6 | spec binding, striatum WT (mGluR2 [2]): (~62% spec | difference in tracer binding to WT and mGluR2 KO mouse brain sections (mGluR2 [2]): less pronounced | Cortex WT (TB)/Cortex KO (TB) (mGluR2 [2]): ~2.6 | Striatum WT (TB)/Striatum KO (TB) (mGluR2 [2]): ~2.2

COc1nc(N2C[C@H](C)n3ncc(-c4ccnc(N[11CH3])c4)c3C2=O)ccc1C(F)(F)F [[^11C]-5]
Cortex WT (TB)/cortex WT (block Co. No. 1) (mGluR2 [2]): ~2.4 | spec binding, cortex WT (mGluR2 [2]): (~58% spec | Striatum WT (TB)/striatum WT (block Co. No. 1) (mGluR2 [2]): ~1.9 | spec binding, striatum WT (mGluR2 [2]): (~47% spec | difference in tracer binding to WT and mGluR2 KO mouse brain sections (mGluR2 [2]): less pronounced | Cortex WT (TB)/Cortex KO (TB) (mGluR2 [2]): ~2.6 | Striatum WT (TB)/Striatum KO (TB) (mGluR2 [2]): ~1.9
